Patent US20250195463A1, “ORGANOMETALLIC COMPLEX, CONTROLLED-RELEASE MULTI-FUNCTIONAL DRUG, PHARMACEUTICAL COMPOSITION, PROCESSES FOR THE PREPARATION THEREOF AND THEIR USE” (FACULDADE DE CIÊNCIAS DA UNIVERSIDADE DE LISBOA, priority 2022, published 2025)
Read-outs that look alike come from different tables or passages of the source. Where a SMILES comes first, the peptide text is derived from it. [ ]: non-standard residue; d: D form. The star is where a group is joined. Levulinoyl = CC(=O)CCC(=O)*

Assays:
[1] = test system: MDA-MB-134-VI (FGFR+); experiment: MTT cytotoxicity assay; conditions: human, 48 h
Method: (§1) By way of example, the in vitro cytotoxicity of the conjugate RuPC1, complex 4 and peptide P2 was determined in four human breast cancer cell lines with different levels of expression of the receptor FGFR, namely MDA-MB-231 (FGFR−), MCF-7 (FGFR−), SK-BR-3 (FGFR+), and MDA-MB-134-VI (FGFR+). The cytotoxicity of RuPC1 was also determined in the stated cell lines at controlled pH 6.8 and 7.4. The cytotoxicity of the complexes 5, 8, 9, and the reference complex (2,2′-bipyridyl)(triphenylphosphane)(f-cyclopentadienyl)ruthenium(II) trifluoromethanesulfonate, [RuCp(PPh3)(bipy)][CF3SO3] (TM34) was only determined in the cell line MDA-MB-231. All the cell lines were from the American Type Culture Collection (ATCC) and were cultured in Dulbecco's Modified Eagle Medium+Glutamax-I (Gibco) supplemented with 10% fetal bovine serum (FBS) and 1% antibiotics, excepting the MDA-MB-134-VI for which it was used the double amount of FBS. The cell cultures were kept in an incubator Heraeus at 37° C. under humidified atmosphere at 5% CO2. The cell viability was evaluated resorting to the MTT ([3-(4,5-dimethylthiazol-2-yl)-2,5-diphenyltetrazolium bromide]) colorimetric assay, which is based on the reduction of the tetrazolium salt to purple formazan by mitochondrial dehydrogenases in metabolically active cells. For the assays, the cells were seeded in 96-well plates (2×10^4 to 3×10^4 cells/200 μL) and allowed to adhere overnight. The compounds were first dissolved in dimethyl sulfoxide to obtain 10 mM stock solutions, further used to prepare the working solutions, at 0.1 to 100 μM, by dilution in the cell culture medium. Alternatively, for the assays at controlled pH 6.8 and 7.4, RuPC1 was first dissolved in a solution of 15% dimethyl sulfoxide/85% phosphate buffer (10 mM in water) to obtain 1.5 mM stock solutions further incubated for 48 hours at both pH values prior to be used to prepare the working solutions, at 0.1 to 50 μM, by dilution in the cell culture medium. In both cases, after continuous exposure of the cells to the compounds for 48 h at 37° C., the medium was removed and the cells were incubated with 200 μL of MTT solution (0.5 mg/mL) for 3 h. Then, the solution was discarded and the purple formazan formed by the viable cells was dissolved in 200 μL of dimethyl sulfoxide. The cell viability (%) was determined relative to the control (cells incubated without compounds) by measuring the absorbance at 570 nm on a PowerWave Xs Bio-Tek Instruments plate spectrophotometer. The respective values of the half maximal inhibitory concentration (IC50) were calculated with the software GraphPad Prism. All the compounds were tested in at least two independent experiments, each comprising six replicates per concentration.

[2] = test system: MDA-MB-231 (FGFR−); experiment: MTT cytotoxicity assay; conditions: 48 h
Method: as §1

[3] = test system: SK-BR-3 (FGFR+); experiment: MTT cytotoxicity assay; conditions: human, 48 h
Method: as §1

[4] = test system: MCF-7 (FGFR−); experiment: MTT cytotoxicity assay; conditions: human, 48 h
Method: as §1

[5] = test system: four human breast cancer cell lines with different levels of expression of the receptor FGFR; experiment: MTT cytotoxicity assay, comparisons across the cell line panel; format: cell-based; conditions: adopted experimental conditions (48 h)
Method: By way of example, the in vitro cytotoxicity of the conjugate RuPC1, complex 4 and peptide P2 was determined in four human breast cancer cell lines with different levels of expression of the receptor FGFR, namely MDA-MB-231 (FGFR−), MCF-7 (FGFR−), SK-BR-3 (FGFR+), and MDA-MB-134-VI (FGFR+). The cytotoxicity of RuPC1 was also determined in the stated cell lines at controlled pH 6.8 and 7.4. The cytotoxicity of the complexes 5, 8, 9, and the reference complex (2,2′-bipyridyl)(triphenylphosphane)(f-cyclopentadienyl)ruthenium(II) trifluoromethanesulfonate, [RuCp(PPh3)(bipy)][CF3SO3] (TM34) was only determined in the cell line MDA-MB-231. […] The cell viability was evaluated resorting to the MTT ([3-(4,5-dimethylthiazol-2-yl)-2,5-diphenyltetrazolium bromide]) colorimetric assay, which is based on the reduction of the tetrazolium salt to purple formazan by mitochondrial dehydrogenases in metabolically active cells. […] The cell viability (%) was determined relative to the control (cells incubated without compounds) by measuring the absorbance at 570 nm on a PowerWave Xs Bio-Tek Instruments plate spectrophotometer. The respective values of the half maximal inhibitory concentration (IC50) were calculated with the software GraphPad Prism. […]

Compound	IC50 [1]	IC50 ([2]; human)	IC50 [3]	IC50 [4]	Cytotoxic activity in words [5]	IC50 ([2]; read-out: Cytotoxic activity expressed as IC50, Table 5, MDA-MB-231, 37° C.)
CC(=O)CCC(=O)N[C@@H](C(=O)N[C@@H](CO)C(=O)N1CCC[C@H]1C(=O)N1CCC[C@@H]1C(=O)N[C@@H](CC(C)C)C(=O)N[C@H](C(=O)N[C@@H](CC(C)C)C(=O)NCC(=O)N[C@@H](CCC(N)=O)C(=O)N[C@@H](CC(C)C)C(=O)N[C@@H](CC(C)C)C(=O)N[C@@H](CO)C(N)=O)[C@@H](C)O)C(C)C [peptide P2, 4-oxopetanoyl-NH-^1valine-^2serine-^3proline-^4proline-^5leucine-^6threonine-^7leucine-^8glycine-^9glutamine-^10leucine-^11leucine-^12serine-CONH2] (Levulinoyl-[dV]SP[dP]LTLGQLLS-NH2)	> 100 µM	> 100 µM	> 100 µM	> 100 µM	did not show significant cytotoxic activity	
O=S(=O)([O-])C(F)(F)F.[Ru+2].c1cc[cH-]c1.c1ccc(-c2ccccn2)nc1.c1ccc(P(c2ccccc2)c2ccccc2)cc1 [TM34, (2,2′-bipyridyl)(triphenylphosphane)(f-cyclopentadienyl)ruthenium(II) trifluoromethanesulfonate, reference compound]						0.52 µM
